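Tested at 5 concentrations; 48 h exposure; 96-well plates; endpoints linearly interpolated, else capped at highest concentration. Abbreviation: GI50, concentration required for 50% inhibition of growth.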 Active and inactive are the calls of the source. No stated cut-off is given here; in the data, active = GI50 up to about 1.1 µM and inactive = higher. Peptide text beside a SMILES is read from it. * marks the point of attachment. Boc = CC(C)(C)OC(=O)*
How the values were obtained:
Assay in all cases: growth of human tumour cells (NCI), 48 h
CAKI-1 = test system: CAKI-1
LOX IMVI = test system: LOX IMVI
SK-OV-3 = test system: SK-OV-3
RPMI-8226 = test system: RPMI-8226
SF-268 = test system: SF-268
SR = test system: SR
HOP-62 = test system: HOP-62
SK-MEL-28 = test system: SK-MEL-28
HCC 2998 = test system: HCC 2998
MDA-MB-231 = test system: MDA-MB-231
786-0 = test system: 786-0
Hs-578T = test system: Hs-578T
NCI-H226 = test system: NCI-H226
OVCAR-3 = test system: OVCAR-3
Malme-3M = test system: Malme-3M
MCF7 = test system: MCF7
UACC-62 = test system: UACC-62
HCT-116 = test system: HCT-116
A549 = test system: A549
NCI-H23 = test system: NCI-H23

Structure (SMILES)	GI50 (CAKI-1)	GI50 (LOX IMVI)	GI50 (SK-OV-3)	GI50 (RPMI-8226)	GI50 (SF-268)	GI50 (SR)	GI50 (HOP-62)	GI50 (SK-MEL-28)	GI50 (HCC 2998)	GI50 (MDA-MB-231)	GI50 (786-0)	GI50 (Hs-578T)	GI50 (NCI-H226)	GI50 (OVCAR-3)	GI50 (Malme-3M)	GI50 (MCF7)	GI50 (UACC-62)	GI50 (HCT-116)	GI50 (A549)	GI50 (NCI-H23)
COC(=O)C1=C(C(=O)OC)C(C(=O)OC)C(C(=O)OC)C(C(=O)OC)(C(=O)OC)C(C(=O)OC)=C1C(=O)OC (stereo not given)	15.1 µM (inactive)	13.5 µM (inactive)	27 µM (inactive)	2.24 µM (inactive)	19 µM (inactive)	0.285 µM (active)	32.3 µM (inactive)	15.1 µM (inactive)	16.9 µM (inactive)	20.9 µM (inactive)	9.14 µM (inactive)	34.5 µM (inactive)	15.9 µM (inactive)	15.1 µM (inactive)	5.77 µM (inactive)	15.4 µM (inactive)	15.5 µM (inactive)	7.36 µM (inactive)	21.2 µM (inactive)	18.6 µM (inactive)
COc1cc(O)c2c(c1)C(O)C(O)CC1OC1C(=O)/C=C/CC(C)OC2=O (stereo not given)	1.08 µM (active)	3.88 µM (inactive)	19.7 µM (inactive)	3.1 µM (inactive)	10.4 µM (inactive)	2.7 µM (inactive)	18 µM (inactive)	0.194 µM (active)	6.34 µM (inactive)	3.86 µM (inactive)	3.52 µM (inactive)	10 µM (inactive)	12.9 µM (inactive)	2.74 µM (inactive)	0.029 µM (active)	4.07 µM (inactive)	0.0904 µM (active)	1.11 µM (active)	20.5 µM (inactive)	2.1 µM (inactive)
CN(C)CCOc1ccc2[nH]c(C(=O)N3CC(CCl)c4c3cc(NC(=O)OCc3ccc([N+](=O)[O-])cc3)c3ccccc43)cc2c1 (stereo not given)	1.18 µM (inactive)	1.45 µM (inactive)	1.66 µM (inactive)	0.493 µM (active)	1.37 µM (inactive)	0.533 µM (active)	1.47 µM (inactive)	1.64 µM (inactive)	8.15 µM (inactive)	2.14 µM (inactive)	0.979 µM (active)	2.3 µM (inactive)	1.67 µM (inactive)	1.63 µM (inactive)	1.47 µM (inactive)	0.211 µM (active)	1.83 µM (inactive)	0.794 µM (active)	1.24 µM (inactive)	1.36 µM (inactive)
CC1CCc2sc3nc(S)n(C)c(=O)c3c2C1 (stereo not given)	39.2 µM (inactive)	33.7 µM (inactive)	81.3 µM (inactive)	36.7 µM (inactive)	48.1 µM (inactive)	34 µM (inactive)	39.7 µM (inactive)	58.5 µM (inactive)	22.2 µM (inactive)	36.7 µM (inactive)	50.8 µM (inactive)	78.2 µM (inactive)	26.7 µM (inactive)	22.4 µM (inactive)	53.6 µM (inactive)	35.5 µM (inactive)	33.7 µM (inactive)	34.5 µM (inactive)	33.6 µM (inactive)	35.6 µM (inactive)
COc1ccc2c(-c3ccc(OCCN(C)C)cc3)c(Oc3ccc(Cl)cc3)c(=O)oc2c1	11.1 µM (inactive)	2.19 µM (inactive)	7.4 µM (inactive)	4.05 µM (inactive)	7.76 µM (inactive)	2 µM (inactive)	4.21 µM (inactive)	1.82 µM (inactive)	2.83 µM (inactive)	6.79 µM (inactive)	2.59 µM (inactive)	6.01 µM (inactive)	23.9 µM (inactive)	6.17 µM (inactive)	1.74 µM (inactive)	2.52 µM (inactive)	2.75 µM (inactive)	2.63 µM (inactive)	4.48 µM (inactive)	14.5 µM (inactive)
Cc1ccc(Nc2c(C#N)[n+]([O-])c3cc(Cl)ccc3[n+]2[O-])cc1	42 µM (inactive)	6.85 µM (inactive)	61.7 µM (inactive)	4.61 µM (inactive)	28.4 µM (inactive)	7.98 µM (inactive)	43.1 µM (inactive)	> 100 µM (inactive)	21.8 µM (inactive)	> 100 µM (inactive)	4.8 µM (inactive)	> 100 µM (inactive)	28.2 µM (inactive)	4.13 µM (inactive)	79.3 µM (inactive)	15.3 µM (inactive)	20.7 µM (inactive)	8.79 µM (inactive)	23.8 µM (inactive)	40.5 µM (inactive)
COc1ccc(C(=O)/C=C/c2ccc(OCC(=O)N3CCN(c4ccccc4)CC3)cc2)cc1	77.8 µM (inactive)	> 73.6 µM (inactive)	29.1 µM (inactive)	> 39.8 µM (inactive)	54 µM (inactive)	18.6 µM (inactive)	39.1 µM (inactive)	> 100 µM (inactive)	> 100 µM (inactive)	> 27.3 µM (inactive)	30.1 µM (inactive)	> 40.7 µM (inactive)	> 83 µM (inactive)	74.3 µM (inactive)	> 80.7 µM (inactive)	78.2 µM (inactive)	75.2 µM (inactive)	64.6 µM (inactive)	51.6 µM (inactive)	38.6 µM (inactive)
CCNC(=S)N/N=C(/C)c1cccc(/C(C)=N\NC(=S)NCC)n1	1.23 µM (inactive)	0.373 µM (active)	2.63 µM (inactive)	0.847 µM (active)	0.59 µM (active)	0.184 µM (active)	1.11 µM (active)	2.38 µM (inactive)	3.56 µM (inactive)	2.32 µM (inactive)	1.5 µM (inactive)	13.8 µM (inactive)	0.333 µM (active)	0.366 µM (active)	2.44 µM (inactive)	0.689 µM (active)	1.09 µM (active)	0.367 µM (active)	0.719 µM (active)	4.06 µM (inactive)
CC(=O)Nc1ccc2c3c(cc(O)c2c1)N(C(=O)CCCCC(=O)Nc1ccc2c4c(cc(O)c2c1)N(C(=O)OC(C)(C)C)CC4CCl)CC3CCl (stereo not given)	17.4 µM (inactive)	2.19 µM (inactive)	4.4 µM (inactive)	3.13 µM (inactive)	0.804 µM (active)	0.137 µM (active)	3.05 µM (inactive)	3.3 µM (inactive)	1.66 µM (inactive)	3.8 µM (inactive)	2.76 µM (inactive)	3.55 µM (inactive)	2.13 µM (inactive)	2.26 µM (inactive)	1.39 µM (inactive)	0.373 µM (active)	1.54 µM (inactive)	2.22 µM (inactive)	7.62 µM (inactive)	1.05 µM (active)
COC(Cc1ccccc1)NC(C)=O (stereo not given)	> 100 µM (inactive)	> 100 µM (inactive)	> 100 µM (inactive)	> 100 µM (inactive)	> 100 µM (inactive)	> 100 µM (inactive)	> 100 µM (inactive)	> 100 µM (inactive)	> 100 µM (inactive)	> 100 µM (inactive)	> 100 µM (inactive)	> 100 µM (inactive)	> 100 µM (inactive)	> 100 µM (inactive)	> 100 µM (inactive)	> 100 µM (inactive)	> 100 µM (inactive)	> 100 µM (inactive)	> 100 µM (inactive)	> 100 µM (inactive)
COc1ccc(/C=C2\CCCc3ccccc3C2=O)cc1	2.82 µM (inactive)	0.179 µM (active)	0.119 µM (active)	0.411 µM (active)	0.249 µM (active)	0.452 µM (active)	0.187 µM (active)	3.83 µM (inactive)	0.2 µM (active)	0.201 µM (active)	0.0561 µM (active)	0.233 µM (active)	0.116 µM (active)	0.0982 µM (active)	0.0174 µM (active)	1.27 µM (inactive)	0.0292 µM (active)	0.244 µM (active)	0.197 µM (active)	0.122 µM (active)
CC(NC(=O)OC(C)(C)C)C(=O)NC(Cc1ccccc1)C(=O)NCC(=O)O (stereo not drawn) (Boc-Ala-Phe-Gly-OH; configuration not given here)	> 100 µM (inactive)	> 100 µM (inactive)	> 100 µM (inactive)	> 100 µM (inactive)	> 100 µM (inactive)	> 100 µM (inactive)	> 100 µM (inactive)	> 100 µM (inactive)	> 100 µM (inactive)	> 100 µM (inactive)	> 100 µM (inactive)	> 100 µM (inactive)	> 100 µM (inactive)	> 100 µM (inactive)	> 100 µM (inactive)	> 100 µM (inactive)	> 100 µM (inactive)	> 100 µM (inactive)	> 100 µM (inactive)	> 100 µM (inactive)
C/C(=C\c1csc(C)n1)[C@@H]1C[C@@H]2O[C@]2(C)CCC[C@H](C)[C@H](O)[C@@H](C)C(=O)C(C)(C)[C@@H](O)CC(=O)O1 [PATUPILONE]	< 0.0001 µM (active)	< 0.0001 µM (active)	< 0.0001 µM (active)	< 0.0001 µM (active)	< 0.0001 µM (active)	< 0.0001 µM (active)	< 0.0001 µM (active)	< 0.0001 µM (active)	< 0.0001 µM (active)	< 0.0001 µM (active)	< 0.0001 µM (active)	< 0.0001 µM (active)	< 0.0001 µM (active)	< 0.0001 µM (active)	0.01 µM (active)	< 0.0001 µM (active)	< 0.0001 µM (active)	< 0.0001 µM (active)	< 0.0001 µM (active)	< 0.0001 µM (active)

From ChEMBL document CHEMBL1201862, “PubChem BioAssay data set” (2004)
